According to article PMC8296708, “The pan HDAC inhibitor Givinostat improves muscle function and histological parameters in two Duchenne muscular dystrophy murine models expressing different haplotypes of the LTBP4 gene” (Skeletal Muscle, 2021):

How the values were obtained:
[1] = Body weight of D2.B10 mice; type: in vivo, mouse (D2.B10-Dmd^mdx/J)
Protocol: In the efficacy studies, Givinostat powder (ITF2357) was suspended in 0.5% methylcellulose (Sigma-Aldrich) and administered p.o. (by gavage) at the doses of 0.1, 0.3, 1, 5, 10, 25, and 37.5 mg/kg qdx5x15weeks (administration volume per mouse: 10 mL/kg) in mdx mice (see Additional Figure 1A). Vehicle-treated mdx mice received 0.5% methylcellulose suspension. Givinostat suspension was stored at + 4 °C, and it was freshly prepared every 7 days. Probably due to the impairment of their tongue and masticatory muscles, the oral gavage procedure turned out to be difficult to perform, and chronic treatment of D2.B10 mice by this route was considered to bear a high risk of damaging the esophagus. For this reason, Givinostat was administered in the drinking water. Givinostat was dissolved in filtered tap water and was administered in drinking water (throughout 24 h) for 105 days at the dose of 1, 5, 10, and 37.5 mg/kg/day, according to a daily estimate of water consumption of 4 ml/mouse/day. Water consumption was weekly monitored throughout the entire duration of the study weighing the bottle of each cage (maximum 4 mice per cage). Prednisone and Deflazacort powder (Sigma-Aldrich) was dissolved in 2% DMSO (Sigma-Aldrich) and diluted in sterile saline on injection days. Both drugs were administered weekly (for 15 weeks) by i.p. injection at the dose of 1 mg/kg in a volume of 10 mL/kg. […] All mice were monitored daily and tolerability was evaluated on the basis of BW and clinical signs.
In both efficacy studies, the effectiveness of treatments was evaluated every week by measuring the forelimb strength by a grip strength meter (Ugo Basile SRL, Italy). BW of mdx (see Additional Figure 2) and D2.B10 mice (see Additional Figure 3) was also measured in order to normalize the absolute grip strength of each mouse with respect to its BW. […] The highest recorded value of maximal normalized strength (FNmax) obtained for each mouse at all the time points (from T0 to T15) was used for further analysis.

D2.B10 mice = test: Myofiber cross-sectional area (CSA) in D2.B10 mice; type: in vivo, mouse (D2.B10-Dmd^mdx/J); settings: for TA CSA / GAS CSA: D2.B10 mice, Givinostat 37.5 mg/kg
From the text: Tibialis anterior (TA), gastrocnemius (GAS), DIA, and heart were collected from mice maintained under isoflurane anesthesia and sacrificed by cervical dislocation. These muscles were collected from C57BL/10J wt and mdx (5 mice/group) at the end of treatments and from DBA/2J wt and D2.B10 mice (5 mice/group) at two different time points to be examined by a pathologist (for more details see Additional Table 1). Due to the results obtained by the functional tests, muscles from only some treatment groups were analyzed in both DMD models (see Additional Table 1). All the collected muscles were fixed in 10% buffered formalin solution (Bio-optica, Milan, Italy) at + 4 °C for at least 48 h. After fixation, muscular samples were transversely trimmed, caged, and paraffin embedded overnight with an Automated Vacuum Tissue Processor Floor (ETP, Histo-Line Laboratories) and included in paraffin blocks. Serial transverse cross-sections (4 μm thick) were cut with a microtome (Leica RM 2255), collected onto uncoated glass slides, and stained using a standard protocol for hematoxylin and eosin (Mayer hematoxylin & Aqueous G Eosin 1%, Bio-Optica) and Sirius Red staining (Direct Red 80, Sigma-Aldrich). For the image analysis and quantitation, hematoxylin and eosin- and Sirius Red-stained slides were examined with an Olympus BX51 light microscope. From each sample, 1 to 3 random microphotographs at the magnification of × 4 and × 10 (TA, GAS and heart) or × 20 (DIA) were collected using Image-Pro Plus system. The digital images were processed by a pathologist using ImageJ software (U.S. National Institutes of Health, Bethesda, MD, USA). To quantify CSA and centralized nuclei (%) on hematoxylin and eosin-stained sections, one hundred myofibers were manually measured for each muscle/mouse using a tablet pen (Wacom Intruos) and analyzed by the ImageJ software after a linear calibration of 150 μm. The fibrotic area, corresponding to the area stained in red, was compared to the total area of the tissue section, and the results were expressed as percentage fibrosis. The % of fibrosis of muscles in the different treatment groups was expressed by averaging the three values obtained from each muscle.
The deciles of the CSA of the animals treated with Givinostat at the different doses were plotted against the corresponding deciles of the vehicle-treated mice and a linear regression analysis was performed on natural [CSAtreated = b CSAcontrol + a] and log_transformed data [log(CSAtreated) = log(a) + b log(CSAcontrol)]. […] In case of untransformed data, this means that the effect of Givinostat treatment is additive and any decile of the CSAtreatment distribution may be derived from the control data summing up a constant quantity (S) to each fiber AREA of the control group (CSAtreated = CSAcontrol + S). In case of log_transformed data, the effect of Givinostat has to be considered as a multiplicative factor on any generic fiber of the muscle under evaluation, whose size, after the treatment, results K times larger in comparison to the control group value (CSAtreated […] = K × CSAcontrol, with K = 10^a). The S or K parameter values were then determined through an iterative estimation procedure, based on sum of squares (SSQ) minimization, directly comparing the CSA distribution observed in treated animals with that obtained summing up the S value or multiplying by K the CSA values of the control group.

[2] = T8, prednisone 1 mg/kg (vehicle 600)
[3] = T8, prednisone 1 mg/kg (vehicle 1050)
[4] = T16, prednisone 1 mg/kg (vehicle 300)

Compound	Body weight vs vehicle-treated mice ([1]; mouse, in vivo)	TA CSA (D2.B10 mice; [2]) [μm^2]	GAS CSA (D2.B10 mice; [3]) [μm^2]	GAS CSA (D2.B10 mice; [4]) [μm^2]	TA CSA (D2.B10 mice; [4]) [μm^2]	Effect of steroid on cross-sectional area and centralized nuclei (D2.B10 mice; D2.B10 muscles, 1 mg/kg i.p. weekly)	Body weight vs vehicle-treated mice ([1]; D2.B10 mice)
C[C@]12C=CC(=O)C=C1CC[C@@H]1[C@@H]2C(=O)C[C@@]2(C)[C@H]1CC[C@]2(O)C(=O)CO [prednisone]	no significant differences	300	600	300	300	unable to affect cross-sectional area or the number of centralized nuclei	–
CCN(CC)Cc1ccc2cc(COC(=O)Nc3ccc(C(=O)NO)cc3)ccc2c1 [Givinostat]	–	300	600	450	300	–	no significant differences
